In data set [1] the target is T1, U5 small nuclear ribonucleoprotein 200 kDa helicase (Homo sapiens, UniProt O75643). Kind of data set: Inhibition of full length recombinant human N-terminal His-tagged BRR2 RNA dependent ATPase activity expressed in baculovirus infected Sf9 cells using single stranded poly(U) RNA as substrate after 30 mins by ADP-Glo luminescence assay.
Data set [2] deals with Eukaryotic initiation factor 4A-I (Homo sapiens, UniProt P60842). As to the kind of experiment: Inhibition of elF4G-induced full length recombinant human N-terminal His6-SUMO-tagged eIF4A1 RNA dependent ATPase activity expressed in Escherichia coli BL21(DE3) using single stranded poly(U) RNA as substrate after 30 mins by ADP-Glo luminescence assay.
Data set [3] deals with Eukaryotic initiation factor 4A-III (Homo sapiens, UniProt P38919). As to the kind of experiment: Inhibition of MLN51-induced full length recombinant human N-terminal His6/SUMO-tagged eIF4A3 RNA dependent ATPase activity expressed in Escherichia coli BL21(DE3) using single stranded poly(U) RNA as substrate after 30 mins by ADP-Glo luminescence assay.
A short description of data set [4]: Solubility of the compound at pH 6.8. Format: physicochemical. The settings on record: buffer.
For data set [5], the target named is T1, U5 small nuclear ribonucleoprotein 200 kDa helicase. Kind of data set: Inhibition of full length recombinant human N-terminal His-tagged BRR2 helicase activity expressed in baculovirus infected Sf9 cells using 5'-[FITC]-UUCCCCUGCAUAAC-3'/5'-GUUAUGCAGGGGAACCAACGCAUAUCAGUGAGGAUU-3' RNA as substrate at 100 uM after 10 mins in presence of ATP by PAGE analysis.

A short description of data set [6]: Permeability of the compound at pH 7.4 by PAMPA. Type of data set: physicochemical. Particulars: read-out: permeability.
For data set [7], the target named is T2, ATP-dependent RNA helicase DHX29 (Homo sapiens, UniProt Q7Z478).
T2 sequence (Q7Z478 whole entry): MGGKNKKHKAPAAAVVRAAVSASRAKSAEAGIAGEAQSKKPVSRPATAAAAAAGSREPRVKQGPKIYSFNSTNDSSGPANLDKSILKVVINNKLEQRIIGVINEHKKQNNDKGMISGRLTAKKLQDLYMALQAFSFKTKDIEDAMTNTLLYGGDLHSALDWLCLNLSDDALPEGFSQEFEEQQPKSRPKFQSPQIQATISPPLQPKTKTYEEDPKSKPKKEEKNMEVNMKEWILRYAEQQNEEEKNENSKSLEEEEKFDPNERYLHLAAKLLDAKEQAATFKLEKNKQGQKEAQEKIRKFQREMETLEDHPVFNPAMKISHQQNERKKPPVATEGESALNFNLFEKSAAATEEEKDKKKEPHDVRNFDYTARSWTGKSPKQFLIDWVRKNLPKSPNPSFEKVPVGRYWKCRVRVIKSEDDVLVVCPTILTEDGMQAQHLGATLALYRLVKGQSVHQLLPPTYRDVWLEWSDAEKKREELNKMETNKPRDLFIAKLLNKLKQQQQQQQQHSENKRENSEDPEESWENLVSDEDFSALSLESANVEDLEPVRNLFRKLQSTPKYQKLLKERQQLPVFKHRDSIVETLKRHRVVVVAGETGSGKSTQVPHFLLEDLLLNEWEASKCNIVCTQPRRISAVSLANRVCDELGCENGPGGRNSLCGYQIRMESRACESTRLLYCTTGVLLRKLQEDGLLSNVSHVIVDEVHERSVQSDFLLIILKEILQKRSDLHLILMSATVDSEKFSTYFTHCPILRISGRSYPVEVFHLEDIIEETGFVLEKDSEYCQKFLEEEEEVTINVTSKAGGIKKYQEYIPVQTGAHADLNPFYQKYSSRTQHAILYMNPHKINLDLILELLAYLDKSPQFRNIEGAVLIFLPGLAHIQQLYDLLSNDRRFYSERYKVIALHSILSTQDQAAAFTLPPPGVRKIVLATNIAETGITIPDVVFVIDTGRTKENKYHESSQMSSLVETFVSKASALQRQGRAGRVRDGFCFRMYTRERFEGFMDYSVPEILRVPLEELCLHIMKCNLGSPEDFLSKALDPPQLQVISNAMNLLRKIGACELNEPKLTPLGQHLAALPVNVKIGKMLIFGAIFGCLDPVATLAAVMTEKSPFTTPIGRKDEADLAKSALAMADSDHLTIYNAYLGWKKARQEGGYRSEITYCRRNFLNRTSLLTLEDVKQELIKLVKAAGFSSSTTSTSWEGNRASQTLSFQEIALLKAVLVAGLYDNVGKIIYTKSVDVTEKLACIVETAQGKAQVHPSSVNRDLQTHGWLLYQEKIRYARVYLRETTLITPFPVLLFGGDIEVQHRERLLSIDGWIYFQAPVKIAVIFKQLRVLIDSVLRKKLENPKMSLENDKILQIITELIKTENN
Kind of data set: Inhibition of full length recombinant human N-terminal His-FLAG-tagged DHX29 RNA dependent ATPase activity expressed in baculovirus infected Sf9 insect cells using single stranded poly(U) RNA as substrate after 30 mins by ADP-Glo luminescence assay.

The target of data set [8] is T1, U5 small nuclear ribonucleoprotein 200 kDa helicase. Kind of data set: Inhibition of full length recombinant human N-terminal His-tagged BRR2 helicase activity expressed in baculovirus infected Sf9 cells using 5'-[FITC]-UUCCCCUGCAUAAC-3'/5'-GUUAUGCAGGGGAACCAACGCAUAUCAGUGAGGAUU-3' RNA as substrate after 10 mins in presence of ATP by PAGE analysis.

Six compounds from ChEMBL document CHEMBL4043122, “Discovery of spiro[indole-3,2'-pyrrolidin]-2(1H)-one based inhibitors targeting Brr2, a core component of the U5 snRNP” (Bioorg Med Chem, 2017) can be followed below.

In brackets after ≈: the same amount, converted by molar mass. Activity calls are given as the source filed them. The calls are words filed in the database; no cut-off is given here.

Chain of Eukaryotic initiation factor 4A-I (P60842 whole entry): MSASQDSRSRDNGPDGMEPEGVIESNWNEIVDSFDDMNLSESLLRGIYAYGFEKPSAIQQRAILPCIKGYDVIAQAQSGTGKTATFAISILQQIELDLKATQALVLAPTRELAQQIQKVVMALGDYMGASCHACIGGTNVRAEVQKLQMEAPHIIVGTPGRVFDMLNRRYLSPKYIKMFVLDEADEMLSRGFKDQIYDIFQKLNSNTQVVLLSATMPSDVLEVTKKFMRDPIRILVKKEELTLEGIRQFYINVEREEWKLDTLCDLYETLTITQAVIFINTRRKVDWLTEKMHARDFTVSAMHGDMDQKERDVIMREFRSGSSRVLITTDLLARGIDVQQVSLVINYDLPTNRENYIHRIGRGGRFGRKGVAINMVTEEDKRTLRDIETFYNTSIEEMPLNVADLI
T1 sequence (O75643 whole entry): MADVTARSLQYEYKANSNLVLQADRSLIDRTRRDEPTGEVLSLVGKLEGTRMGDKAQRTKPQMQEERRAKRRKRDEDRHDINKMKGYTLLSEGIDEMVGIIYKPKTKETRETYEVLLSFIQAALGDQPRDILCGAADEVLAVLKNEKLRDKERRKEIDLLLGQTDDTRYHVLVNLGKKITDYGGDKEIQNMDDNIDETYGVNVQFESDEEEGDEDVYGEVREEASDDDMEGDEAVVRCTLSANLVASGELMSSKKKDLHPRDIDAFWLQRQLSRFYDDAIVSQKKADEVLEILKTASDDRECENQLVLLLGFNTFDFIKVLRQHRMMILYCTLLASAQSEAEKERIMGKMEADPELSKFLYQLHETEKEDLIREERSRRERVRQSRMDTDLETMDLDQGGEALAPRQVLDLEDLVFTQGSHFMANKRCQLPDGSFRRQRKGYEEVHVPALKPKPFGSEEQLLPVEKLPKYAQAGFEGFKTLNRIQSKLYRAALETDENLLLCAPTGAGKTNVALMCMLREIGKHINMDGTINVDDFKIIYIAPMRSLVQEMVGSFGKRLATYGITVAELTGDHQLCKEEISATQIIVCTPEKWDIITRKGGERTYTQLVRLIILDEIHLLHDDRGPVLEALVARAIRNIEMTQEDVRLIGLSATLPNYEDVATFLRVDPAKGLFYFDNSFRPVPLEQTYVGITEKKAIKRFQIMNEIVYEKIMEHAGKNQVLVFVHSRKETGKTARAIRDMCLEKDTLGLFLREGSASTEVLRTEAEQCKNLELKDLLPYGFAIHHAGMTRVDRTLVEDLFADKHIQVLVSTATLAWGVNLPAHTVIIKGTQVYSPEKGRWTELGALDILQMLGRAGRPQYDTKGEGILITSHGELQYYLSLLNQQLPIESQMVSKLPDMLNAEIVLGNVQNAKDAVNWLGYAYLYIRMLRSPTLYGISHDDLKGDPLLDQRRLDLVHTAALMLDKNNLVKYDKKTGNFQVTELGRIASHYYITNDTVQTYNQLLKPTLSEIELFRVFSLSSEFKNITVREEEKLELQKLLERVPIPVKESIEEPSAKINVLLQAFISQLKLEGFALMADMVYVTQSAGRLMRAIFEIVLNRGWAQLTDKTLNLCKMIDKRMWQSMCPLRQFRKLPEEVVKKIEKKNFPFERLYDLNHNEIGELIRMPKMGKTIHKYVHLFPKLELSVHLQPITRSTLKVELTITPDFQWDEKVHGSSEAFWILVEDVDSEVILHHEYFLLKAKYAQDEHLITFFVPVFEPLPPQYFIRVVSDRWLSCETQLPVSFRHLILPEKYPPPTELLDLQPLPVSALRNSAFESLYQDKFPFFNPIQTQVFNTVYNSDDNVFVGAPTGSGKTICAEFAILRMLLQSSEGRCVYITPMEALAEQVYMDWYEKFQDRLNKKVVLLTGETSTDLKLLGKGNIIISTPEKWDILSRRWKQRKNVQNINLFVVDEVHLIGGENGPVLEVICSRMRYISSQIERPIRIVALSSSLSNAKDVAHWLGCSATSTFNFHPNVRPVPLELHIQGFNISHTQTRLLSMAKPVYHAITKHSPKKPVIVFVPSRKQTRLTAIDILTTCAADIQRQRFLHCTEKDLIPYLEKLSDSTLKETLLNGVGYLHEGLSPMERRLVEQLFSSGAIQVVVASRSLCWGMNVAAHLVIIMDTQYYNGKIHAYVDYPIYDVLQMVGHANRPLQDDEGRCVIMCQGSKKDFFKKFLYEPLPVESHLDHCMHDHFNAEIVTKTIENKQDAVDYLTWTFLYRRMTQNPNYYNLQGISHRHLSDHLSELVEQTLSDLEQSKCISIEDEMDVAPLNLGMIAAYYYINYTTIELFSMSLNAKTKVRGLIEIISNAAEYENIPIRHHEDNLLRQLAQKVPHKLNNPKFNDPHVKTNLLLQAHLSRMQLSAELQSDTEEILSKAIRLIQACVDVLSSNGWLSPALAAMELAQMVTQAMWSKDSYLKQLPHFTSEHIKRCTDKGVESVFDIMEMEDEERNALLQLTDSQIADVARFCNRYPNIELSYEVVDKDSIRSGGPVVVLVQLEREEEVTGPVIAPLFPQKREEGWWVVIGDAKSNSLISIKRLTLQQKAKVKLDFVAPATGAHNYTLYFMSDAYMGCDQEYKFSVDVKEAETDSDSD
Chain of Eukaryotic initiation factor 4A-III (P38919 whole entry): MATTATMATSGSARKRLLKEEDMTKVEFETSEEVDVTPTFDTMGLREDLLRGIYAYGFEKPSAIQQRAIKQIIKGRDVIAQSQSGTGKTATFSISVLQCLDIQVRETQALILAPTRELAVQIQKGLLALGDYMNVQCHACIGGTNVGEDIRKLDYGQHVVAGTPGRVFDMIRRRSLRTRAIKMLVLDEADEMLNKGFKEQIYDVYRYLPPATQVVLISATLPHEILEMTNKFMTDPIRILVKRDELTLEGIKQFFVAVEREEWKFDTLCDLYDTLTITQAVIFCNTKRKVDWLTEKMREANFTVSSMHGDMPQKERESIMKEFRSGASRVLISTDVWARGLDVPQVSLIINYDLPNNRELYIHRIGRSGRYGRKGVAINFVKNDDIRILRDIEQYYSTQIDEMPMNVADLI

Turning to `CC(C)C[C@@H]1C[C@H](C)[C@@]2(C(=O)Nc3ccc(F)cc32)N1C(=O)c1cn(Cc2ccccc2)cn1`, the concentration for half-maximal inhibition (IC50) in data set [1], in data set [2] and in data set [3] was greater than 100 µM throughout. Further, in data set [4], the solubility is 46 µg/mL (≈ 99.9 µM). The inhibition result in data set [5] was “inactive”. For the same compound, the Papp in data set [6] was determined as 19.5 ×10⁻⁶ cm/s.

For the compound `CC(C)C[C@@H]1C[C@H](C)[C@@]2(C(=O)Nc3ccc(F)cc32)N1C(=O)c1cn(C)cn1`, the IC50 in data set [1] was 84 µM; in data set [2], greater than 100 µM; in data set [3] it was greater than 100 µM. For the same compound, the solubility in data set [4] was greater than 110 µg/mL. In addition, in data set [5], the inhibition entry is “inactive”. Besides, the Papp in data set [6] was found to be 16.8 ×10⁻⁶ cm/s.

Consider `CC(C)C[C@H]1C[C@@H](C)[C@]2(C(=O)Nc3ccc(F)cc32)N1C(=O)c1cn(C)cn1`, for which the IC50 in data set [1] is 0.021 µM; in data set [2] it was greater than 100 µM; in data set [3], greater than 100 µM; in data set [7] it was greater than 100 µM; in data set [8] it was 0.48 µM. Also, the solubility in data set [4] is greater than 99 µg/mL. Besides, the Papp in data set [6] was 18.3 ×10⁻⁶ cm/s.

On to `CC(C)C[C@H]1C[C@@H](C)[C@]2(C(=O)Nc3ccc(F)cc32)N1C(=O)c1cn(Cc2ccccc2)cn1` (racemic), for which, in data set [1], the IC50 stood at 0.024 µM.

As for `CC(C)C[C@H]1C[C@@H](C)[C@]2(C(=O)Nc3ccc(F)cc32)N1C(=O)c1cn(Cc2ccccc2)cn1`, the IC50 in data set [1] was 0.011 µM; in data set [2] it was greater than 100 µM; in data set [3], greater than 100 µM; in data set [7] it was greater than 100 µM; in data set [8] it was 0.35 µM. In addition, the solubility in data set [4] was determined as 45 µg/mL (≈ 97.7 µM). In addition, the Papp in data set [6] came out at 18.2 ×10⁻⁶ cm/s.

With `CC(C)C[C@H]1C[C@@H](C)[C@]2(C(=O)Nc3ccc(F)cc32)N1C(=O)c1cn(C)cn1` (racemic), the IC50 in data set [1] is 0.042 µM.
